Earlier results, collected in PubChem BioAssay AID1259409 (Chemical Carcinogenesis Research Information System (CCRIS), 2018).

Test system: rodent chemically induced tumor inhibition, incidence and multiplicity
Assay: CCRIS tumor inhibitor studies

With `NC(Cc1c[nH]c2ccccc12)C(=O)O` (stereo unspecified) as the compound, how does the “tumour outcome (control, treated, inhibition, significance)” value (Carcinogen: N-BUTYL-N-(4-HYDROXYBUTYL)NITROSAMINE, 3817-11-6, Dose [Inhibitor]: 5% DIET DAILY FOR 34 WK STARTING AT COMPLETION OF CARCINOGEN TREATMENT (STUDY DURATION: 38 WK), Route [Inhibitor]: ORAL, Species: RAT, Strain/Sex: F344/MALE, Target Tissue: Type of Lesion: URINARY BLADDER: PAPILLOMA, Dose [Carcinogen]: 0.01% IN DRINKING WATER FOR 4 WK, Promoter: NONE USED) read?
The value was 33%, 27%, 18%, not significant.

With `CCCCC1OC(=O)C2=CCCCC21` (stereo unspecified) as the compound, how does the “tumour outcome (control, treated, inhibition, significance)” value (Carcinogen: BENZO[A]PYRENE, 50-32-8, Dose [Inhibitor]: 0, 20 MG 3/WK FOR 4 WK ON DAYS OTHER THAN THE CARCINOGEN TREATMENT (STUDY DURATION: 20 WK), Route [Inhibitor]: GAVAGE, Species: MOUSE, Strain/Sex: STRAIN-A/FEMALE, Target Tissue: Type of Lesion: FORESTOMACH: TUMOR, Dose [Carcinogen]: 1 MG IN 0.2 ML COTTONSEED OIL 2/WK FOR 4 WK, Promoter: NONE USED) read?
Its value is 13/19 (68%), 2/18 (11%), 84%, p<0.025.

What does the source list for `COc1cc(CC(C)C(C)Cc2ccc(O)c(OC)c2)ccc1O` (stereo unspecified)?
tumour outcome (control, treated, inhibition, significance) (Carcinogen: 2,2'-DIHYDROXY-DI-N-PROPYLNITROSAMINE, 53609-64-6, N-ETHYL-N-HYDROXYETHYLNITROSAMINE, 13147-25-6, 3,2'-DIMETHYL-1,4-, Carcinogen: 2,2'-DIHYDROXY-DI-N-PROPYLNITROSAMINE, 53609-64-6, N-ETHYL-N-HYDROXYETHYLNITROSAMINE, 13147-25-6, 3,2'-DIMETHYL-1,4-, Dose [Inhibitor]: 0, 1% IN DIET FOR 4 WK BEGINNING 1 D PRIOR TO FIRST CARCINOGEN DOSE (STUDY DURATION: 36 WK), Route [Inhibitor]: ORAL, Species: RAT, Strain/Sex: F344/MALE, Target Tissue: Type of Lesion: KIDNEY: ADENOMA, Dose [Carcinogen]: 1000 MG/KG BW DHPN TWICE, 1500 MG/KG EHEN TWICE, 75 MG/KG BW DMAB 3 TIMES, SEQUENTIALLY OVER 3 WK, Promoter: NONE USED): 6/10 (60%), 5/12 (42%), 30%, not significant; tumour outcome (control, treated, inhibition, significance) (Carcinogen: 2,2'-DIHYDROXY-DI-N-PROPYLNITROSAMINE, 53609-64-6, N-ETHYL-N-HYDROXYETHYLNITROSAMINE, 13147-25-6, 3,2'-DIMETHYL-1,4-, Carcinogen: 2,2'-DIHYDROXY-DI-N-PROPYLNITROSAMINE, 53609-64-6, N-ETHYL-N-HYDROXYETHYLNITROSAMINE, 13147-25-6, 3,2'-DIMETHYL-1,4-, Dose [Inhibitor]: 0, 1% IN DIET FOR 4 WK BEGINNING 1 D PRIOR TO FIRST CARCINOGEN DOSE (STUDY DURATION: 36 WK), Route [Inhibitor]: ORAL, Species: RAT, Strain/Sex: F344/MALE, Target Tissue: Type of Lesion: LUNG: ADENOMA, Dose [Carcinogen]: 1000 MG/KG BW DHPN TWICE, 1500 MG/KG EHEN TWICE, 75 MG/KG BW DMAB 3 TIMES, SEQUENTIALLY OVER 3 WK, Promoter: NONE USED): 5/10 (50%), 6/12 (50%), 0%, not significant

With `NCCOc1c(Cl)cc(Cl)cc1-c1ccccc1` as the compound, how does the “tumour outcome (control, treated, inhibition, significance)” value (Carcinogen: ETHYL CARBAMATE, 51-79-6, Dose [Inhibitor]: 0, 0.04 MG/G PER DOSE IN 0.01 ML OF 0.9% SALINE ADMINISTERED IN 4 DOSES AT 3 HR INTERVALS BEGINNING 30 MIN PRIOR TO CARC, Route [Inhibitor]: INTRAPERITONEAL, Species: MOUSE, Strain/Sex: B6C3F1/MALE, Target Tissue: Type of Lesion: LIVER: HEPATOMA, Dose [Carcinogen]: 0.125 MG/G ONCE, Promoter: NONE USED) read?
The value was 21/21 (100%), 23/25 (92%), 8%, not calculated.

What about the “tumour outcome (control, treated, inhibition, significance)” value (Carcinogen: ETHYL CARBAMATE, 51-79-6, Dose [Inhibitor]: 0, 0.04 MG/G PER DOSE IN 0.01 ML OF 0.9% SALINE ADMINISTERED IN 4 DOSES AT 3 HR INTERVALS BEGINNING 30 MIN PRIOR TO CARC, Route [Inhibitor]: INTRAPERITONEAL, Species: MOUSE, Strain/Sex: B6C3F1/MALE, Target Tissue: Type of Lesion: LIVER: HEPATOMA, Dose [Carcinogen]: 0.25 MG/G ONCE, Promoter: NONE USED) of the same compound?
Its value is 25/25 (100%), 24/24 (100%), 0%, not calculated.

And the “tumour outcome (control, treated, inhibition, significance)” value (Carcinogen: ETHYL CARBAMATE, 51-79-6, Dose [Inhibitor]: 0, 0.04 MG/G PER DOSE IN 0.01 ML OF 0.9% SALINE ADMINISTERED IN 4 DOSES AT 3 HR INTERVALS BEGINNING 30 MIN PRIOR TO CARC, Route [Inhibitor]: INTRAPERITONEAL, Species: MOUSE, Strain/Sex: B6C3F1/MALE, Target Tissue: Type of Lesion: LIVER: HEPATOMA, Dose [Carcinogen]: 0.5 MG/G ONCE, Promoter: NONE USED)?
Its value is 22/22 (100%), 21/22 (95%), 5%, not calculated.

What about the “tumour outcome (control, treated, inhibition, significance)” value (Carcinogen: VINYL CARBAMATE, 15805-73-9, Dose [Inhibitor]: 0, 0.04 MG/G PER DOSE IN 0.01 ML OF 0.9% SALINE ADMINISTERED IN 4 DOSES AT 3 HR INTERVALS BEGINNING 30 MIN PRIOR TO CARC, Route [Inhibitor]: INTRAPERITONEAL, Species: MOUSE, Strain/Sex: B6C3F1/MALE, Target Tissue: Type of Lesion: LIVER: HEPATOMA, Dose [Carcinogen]: 0.003 MG/G ONCE, Promoter: NONE USED) of the same compound?
The value was 21/24 (88%), 25/25 (100%), -14%, not calculated.

And the “tumour outcome (control, treated, inhibition, significance)” value (Carcinogen: VINYL CARBAMATE, 15805-73-9, Dose [Inhibitor]: 0, 0.04 MG/G PER DOSE IN 0.01 ML OF 0.9% SALINE ADMINISTERED IN 4 DOSES AT 3 HR INTERVALS BEGINNING 30 MIN PRIOR TO CARC, Route [Inhibitor]: INTRAPERITONEAL, Species: MOUSE, Strain/Sex: B6C3F1/MALE, Target Tissue: Type of Lesion: LIVER: HEPATOMA, Dose [Carcinogen]: 0.008 MG/G ONCE, Promoter: NONE USED)?
Its value is 26/26 (100%), 22/23 (96%), 4%, not calculated.

And the “tumour outcome (control, treated, inhibition, significance)” value (Carcinogen: VINYL CARBAMATE, 15805-73-9, Dose [Inhibitor]: 0, 0.04 MG/G PER DOSE IN 0.01 ML OF 0.9% SALINE ADMINISTERED IN 4 DOSES AT 3 HR INTERVALS BEGINNING 30 MIN PRIOR TO CARC, Route [Inhibitor]: INTRAPERITONEAL, Species: MOUSE, Strain/Sex: B6C3F1/MALE, Target Tissue: Type of Lesion: LIVER: HEPATOMA, Dose [Carcinogen]: 0.025 MG/G ONCE, Promoter: NONE USED)?
The value was 23/23 (100%), 24/25 (96%), 4%, not calculated.

With `Cc1ccc(Cl)c(Nc2ccccc2C(=O)O)c1Cl` as the compound, how does the “tumour outcome (control, treated, inhibition, significance)” value (Carcinogen: 1,2-DIMETHYLHYDRAZINE DIHYDROCHLORIDE, 306-37-6, Dose [Inhibitor]: 50 MG/L TAP WATER DAILY FOR 32 WK STARTING SIMULTANEOUSLY WITH CARCINOGEN TREATMENT (STUDY DURATION: 32 WK), Route [Inhibitor]: ORAL, Species: RAT, Strain/Sex: SPRAGUE-DAWLEY/MALE, Target Tissue: Type of Lesion: LARGE INTESTINE: TUMOR, Dose [Carcinogen]: 20 MG/KG BW WEEKLY FOR 20 WK, Promoter: NONE USED) read?
The value was 88%, 90%, -2%, not significant.

What about the “tumour outcome (control, treated, inhibition, significance)” value (Carcinogen: 1,2-DIMETHYLHYDRAZINE DIHYDROCHLORIDE, 306-37-6, Dose [Inhibitor]: 50 MG/L TAP WATER DAILY FOR 32 WK STARTING SIMULTANEOUSLY WITH CARCINOGEN TREATMENT (STUDY DURATION: 32 WK), Route [Inhibitor]: ORAL, Species: RAT, Strain/Sex: SPRAGUE-DAWLEY/MALE, Target Tissue: Type of Lesion: SMALL INTESTINE: TUMOR, Dose [Carcinogen]: 20 MG/KG BW WEEKLY FOR 20 WK, Promoter: NONE USED) of the same compound?
The value was 46%, 35%, 24%, not significant.

With `CC1(C)[C@H](O)CC[C@]2(C)C3=CC[C@@]4(C)[C@@H]5C[C@](C)(CO)CC[C@]5(C)CC[C@]4(C)C3=CC[C@@H]12` as the compound, how does the “tumour outcome (control, treated, inhibition, significance)” value (Carcinogen: 7,12-DIMETHYLBENZ[A]ANTHRACENE, 57-97-6, Dose [Inhibitor]: 0, 2 UMOL IN 100 µL ACETONE:DMSO (9:1) 2/WK FOR 17 WK APPLIED 30 MIN PRIOR TO EACH PROMOTER DOSE (STUDY DURATION: 18 WK), Route [Inhibitor]: DERMAL, Species: MOUSE, Strain/Sex: ICR/FEMALE, Target Tissue: Type of Lesion: SKIN: PAPILLOMA, Dose [Carcinogen]: 50 UG IN 100 µL ACETONE ONCE, Promoter: 12-O-TETRADECANOYLPHORBOL-13-ACETATE, 16561-29-8) read?
Its value is 87%, 13%, 85%, not calculated.

With `O=c1cc(-c2ccc(O)cc2)oc2cc(O)cc(O)c12` as the compound, how does the “tumour outcome (control, treated, inhibition, significance)” value (Carcinogen: 7,12-DIMETHYLBENZ[A]ANTHRACENE, 57-97-6, Dose [Inhibitor]: 0, 5 UMOL IN 0.2 ML ACETONE/DMSO (9:1) 2/WK FOR 20 WK APPLIED 30 MIN PRIOR TO EACH PROMOTER DOSE (STUDY DURATION: 30 WK), Route [Inhibitor]: DERMAL, Species: MOUSE, Strain/Sex: SENCAR/FEMALE, Target Tissue: Type of Lesion: SKIN: PAPILLOMA, Dose [Carcinogen]: 10 NMOL IN 0.2 ML ACETONE ONCE, Promoter: 12-O-TETRADECANOYLPHORBOL-13-ACETATE, 16561-29-8) read?
The value was 92%, 87%, 5%, not significant.

And the “tumour outcome (control, treated, inhibition, significance)” value (Carcinogen: UV-B IRRADIATION, Dose [Inhibitor]: 0, 5 UMOL IN 0.2 ML DMSO:ACETONE (1:9) 2.5-3 HR PRIOR TO EACH UV-B EXPOSURE (STUDY DURATION: 55 WK), Route [Inhibitor]: DERMAL, Species: MOUSE, Strain/Sex: SKH-1/FEMALE, Target Tissue: Type of Lesion: SKIN: SQUAMOUS CELL CARCINOMA, Dose [Carcinogen]: 745 MJ/CM2 5 D/WK FOR 11 WK, Promoter: NONE USED)?
The value was 81%, 67%, 17%, not significant.

What about the “tumour outcome (control, treated, inhibition, significance)” value (Carcinogen: UV-B IRRADIATION, Dose [Inhibitor]: 0, 10 UMOL IN 0.2 ML DMSO:ACETONE (1:9) 2.5-3 HR PRIOR TO EACH UV-B EXPOSURE (STUDY DURATION: 55 WK), Route [Inhibitor]: DERMAL, Species: MOUSE, Strain/Sex: SKH-1/FEMALE, Target Tissue: Type of Lesion: SKIN: SQUAMOUS CELL CARCINOMA, Dose [Carcinogen]: 745 MJ/CM2 5 D/WK FOR 11 WK, Promoter: NONE USED) of the same compound?
The value was 81%, 39%, 52%, not calculated.
